Source: patent US20150307520A1, “NOVEL HETEROARYL AND HETEROCYCLE COMPOUNDS, COMPOSITIONS AND METHODS THEREOF” (HUTCHISON MEDIPHARMA LIMITED, priority 2012, published 2015)

Assays:
Type in all cases: biochemical
p110β/p85α = p110β/p85α (Homo sapiens, UniProt P42338); assay: Transcreener KINASE Assay, kinase inhibition of p110β/p85α; conditions: for PI3Kβ IH % @ 1 uM: 1 uM test compound; for IC50: read-out: PI3Kβ IC50
Summary of the method: (§1)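 ADP production was read by fluorescence polarization immunoassay (60 min detection step) after an 80 min room-temperature reaction of p110/p85α enzyme, compound in 2% DMSO, and PIP2/ATP solution (30 uM/10 uM as added) in HEPES buffer with MgCl2 and DTT. IC50s came from inhibition versus the DMSO control.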

p110δ/p85α = p110δ/p85α (Homo sapiens, UniProt O00329); assay: Transcreener KINASE Assay, kinase inhibition of p110δ/p85α; conditions: for PI3Kδ IH % @ 1 uM: 1 uM test compound; for IC50: read-out: PI3Kδ IC50
Summary of the method: as §1

p110γ = p110γ (Homo sapiens, UniProt P48736); assay: Transcreener KINASE Assay, kinase inhibition of p110γ; conditions: for PI3Kγ IH % @ 1 uM: 1 uM test compound; for IC50: read-out: PI3Kγ IC50
Summary of the method: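 Kinase activity is monitored as ADP formation, detected by competitive fluorescence polarization with a far-red tracer. Recombinant isoform complexes react for 80 min at room temperature before a 60 min detection step. IC50 values come from fitted dose-response data.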

p110δ/p85α, sequence (O00329 whole entry): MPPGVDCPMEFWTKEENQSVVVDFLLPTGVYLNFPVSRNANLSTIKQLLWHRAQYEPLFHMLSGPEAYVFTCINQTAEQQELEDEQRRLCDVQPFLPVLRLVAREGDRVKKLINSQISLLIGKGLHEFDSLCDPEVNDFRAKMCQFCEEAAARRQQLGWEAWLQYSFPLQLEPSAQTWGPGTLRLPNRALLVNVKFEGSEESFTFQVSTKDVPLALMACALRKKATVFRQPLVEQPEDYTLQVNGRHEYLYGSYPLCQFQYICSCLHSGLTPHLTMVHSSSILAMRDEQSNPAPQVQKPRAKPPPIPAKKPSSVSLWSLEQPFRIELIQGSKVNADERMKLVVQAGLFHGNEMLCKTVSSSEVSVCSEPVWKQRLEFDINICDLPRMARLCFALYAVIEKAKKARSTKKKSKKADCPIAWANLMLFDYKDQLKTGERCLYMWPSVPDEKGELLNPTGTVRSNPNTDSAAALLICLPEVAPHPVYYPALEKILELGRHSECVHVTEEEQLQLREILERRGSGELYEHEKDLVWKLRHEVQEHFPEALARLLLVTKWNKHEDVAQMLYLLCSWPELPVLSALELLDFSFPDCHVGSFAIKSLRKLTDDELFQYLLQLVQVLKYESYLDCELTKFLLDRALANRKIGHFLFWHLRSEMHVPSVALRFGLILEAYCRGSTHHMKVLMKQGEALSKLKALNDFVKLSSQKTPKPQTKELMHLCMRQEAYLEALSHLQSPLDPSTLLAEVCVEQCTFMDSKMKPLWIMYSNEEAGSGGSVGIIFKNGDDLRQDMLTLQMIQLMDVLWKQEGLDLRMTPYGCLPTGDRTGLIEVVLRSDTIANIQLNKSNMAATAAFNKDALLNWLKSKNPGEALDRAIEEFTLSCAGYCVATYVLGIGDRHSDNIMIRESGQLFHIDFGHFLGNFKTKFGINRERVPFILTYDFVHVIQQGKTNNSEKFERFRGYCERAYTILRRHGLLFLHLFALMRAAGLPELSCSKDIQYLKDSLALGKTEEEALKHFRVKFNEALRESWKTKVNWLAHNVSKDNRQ
p110δ/p85α, sequence (P27986 whole entry partner): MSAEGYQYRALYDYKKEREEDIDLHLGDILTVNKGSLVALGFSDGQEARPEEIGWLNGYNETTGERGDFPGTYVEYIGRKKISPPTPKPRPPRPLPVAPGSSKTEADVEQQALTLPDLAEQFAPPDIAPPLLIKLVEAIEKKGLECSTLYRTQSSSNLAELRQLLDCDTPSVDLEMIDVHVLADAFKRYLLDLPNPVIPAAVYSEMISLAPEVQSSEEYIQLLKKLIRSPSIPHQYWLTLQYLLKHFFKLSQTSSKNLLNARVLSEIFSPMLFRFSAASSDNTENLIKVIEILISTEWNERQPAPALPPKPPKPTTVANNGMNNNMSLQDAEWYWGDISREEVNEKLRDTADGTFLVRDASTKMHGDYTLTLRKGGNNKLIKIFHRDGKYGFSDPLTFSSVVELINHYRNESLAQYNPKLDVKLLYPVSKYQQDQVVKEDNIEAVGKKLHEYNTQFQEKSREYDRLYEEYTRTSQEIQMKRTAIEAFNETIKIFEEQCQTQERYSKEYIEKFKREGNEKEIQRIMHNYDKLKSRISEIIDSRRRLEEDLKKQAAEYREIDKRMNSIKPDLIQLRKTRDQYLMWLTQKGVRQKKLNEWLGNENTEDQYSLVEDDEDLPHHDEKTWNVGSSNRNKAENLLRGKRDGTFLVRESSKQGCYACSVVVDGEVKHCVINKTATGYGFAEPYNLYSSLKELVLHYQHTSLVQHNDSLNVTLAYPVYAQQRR
p110β/p85α, sequence (P42338 whole entry): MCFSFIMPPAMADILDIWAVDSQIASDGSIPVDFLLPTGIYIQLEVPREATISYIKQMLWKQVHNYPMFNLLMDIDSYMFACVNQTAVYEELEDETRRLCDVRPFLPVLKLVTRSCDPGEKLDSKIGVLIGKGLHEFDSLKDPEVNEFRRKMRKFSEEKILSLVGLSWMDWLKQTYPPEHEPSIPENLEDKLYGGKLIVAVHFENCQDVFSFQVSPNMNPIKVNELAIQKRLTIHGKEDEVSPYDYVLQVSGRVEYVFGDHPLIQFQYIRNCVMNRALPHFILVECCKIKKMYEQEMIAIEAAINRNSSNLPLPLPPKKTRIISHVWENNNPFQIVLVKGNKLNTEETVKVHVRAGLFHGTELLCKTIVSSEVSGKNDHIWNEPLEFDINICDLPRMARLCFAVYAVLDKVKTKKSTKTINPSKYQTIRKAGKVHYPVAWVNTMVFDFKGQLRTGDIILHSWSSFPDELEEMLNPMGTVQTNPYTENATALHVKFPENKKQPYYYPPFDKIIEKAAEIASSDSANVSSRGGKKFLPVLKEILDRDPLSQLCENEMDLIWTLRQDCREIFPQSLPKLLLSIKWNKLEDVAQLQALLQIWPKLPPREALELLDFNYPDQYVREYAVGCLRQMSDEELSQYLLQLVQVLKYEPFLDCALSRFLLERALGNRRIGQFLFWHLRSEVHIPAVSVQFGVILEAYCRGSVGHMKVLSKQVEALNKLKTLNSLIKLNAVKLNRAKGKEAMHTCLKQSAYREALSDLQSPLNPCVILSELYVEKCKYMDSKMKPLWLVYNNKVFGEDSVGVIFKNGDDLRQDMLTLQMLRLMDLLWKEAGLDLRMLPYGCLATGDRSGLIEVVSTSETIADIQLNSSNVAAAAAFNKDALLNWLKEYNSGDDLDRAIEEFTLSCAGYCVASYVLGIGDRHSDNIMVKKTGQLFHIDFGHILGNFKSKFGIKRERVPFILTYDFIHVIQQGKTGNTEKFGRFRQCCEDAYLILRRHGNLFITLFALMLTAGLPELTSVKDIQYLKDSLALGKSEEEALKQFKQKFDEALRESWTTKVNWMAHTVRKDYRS
p110β/p85α, sequence (P27986 2-724 partner): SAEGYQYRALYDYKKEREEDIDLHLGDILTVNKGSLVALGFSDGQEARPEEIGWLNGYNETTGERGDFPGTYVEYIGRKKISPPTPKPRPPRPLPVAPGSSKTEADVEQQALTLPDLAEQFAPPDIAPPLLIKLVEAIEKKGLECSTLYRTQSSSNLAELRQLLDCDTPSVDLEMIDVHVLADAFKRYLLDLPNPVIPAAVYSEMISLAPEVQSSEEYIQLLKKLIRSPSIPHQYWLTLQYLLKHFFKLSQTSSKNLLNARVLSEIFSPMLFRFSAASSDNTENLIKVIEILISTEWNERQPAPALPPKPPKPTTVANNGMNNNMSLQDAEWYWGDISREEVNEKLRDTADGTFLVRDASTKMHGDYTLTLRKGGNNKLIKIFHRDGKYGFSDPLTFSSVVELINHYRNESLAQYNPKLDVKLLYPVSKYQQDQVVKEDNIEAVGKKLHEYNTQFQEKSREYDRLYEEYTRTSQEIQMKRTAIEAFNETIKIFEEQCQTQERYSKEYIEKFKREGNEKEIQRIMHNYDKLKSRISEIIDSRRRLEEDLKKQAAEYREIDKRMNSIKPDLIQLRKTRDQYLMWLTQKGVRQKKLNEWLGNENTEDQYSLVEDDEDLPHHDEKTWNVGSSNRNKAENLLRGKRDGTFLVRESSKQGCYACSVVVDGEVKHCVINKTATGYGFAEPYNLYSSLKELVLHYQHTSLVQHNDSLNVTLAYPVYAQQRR
p110γ, sequence (P48736 whole entry, canonical isoform): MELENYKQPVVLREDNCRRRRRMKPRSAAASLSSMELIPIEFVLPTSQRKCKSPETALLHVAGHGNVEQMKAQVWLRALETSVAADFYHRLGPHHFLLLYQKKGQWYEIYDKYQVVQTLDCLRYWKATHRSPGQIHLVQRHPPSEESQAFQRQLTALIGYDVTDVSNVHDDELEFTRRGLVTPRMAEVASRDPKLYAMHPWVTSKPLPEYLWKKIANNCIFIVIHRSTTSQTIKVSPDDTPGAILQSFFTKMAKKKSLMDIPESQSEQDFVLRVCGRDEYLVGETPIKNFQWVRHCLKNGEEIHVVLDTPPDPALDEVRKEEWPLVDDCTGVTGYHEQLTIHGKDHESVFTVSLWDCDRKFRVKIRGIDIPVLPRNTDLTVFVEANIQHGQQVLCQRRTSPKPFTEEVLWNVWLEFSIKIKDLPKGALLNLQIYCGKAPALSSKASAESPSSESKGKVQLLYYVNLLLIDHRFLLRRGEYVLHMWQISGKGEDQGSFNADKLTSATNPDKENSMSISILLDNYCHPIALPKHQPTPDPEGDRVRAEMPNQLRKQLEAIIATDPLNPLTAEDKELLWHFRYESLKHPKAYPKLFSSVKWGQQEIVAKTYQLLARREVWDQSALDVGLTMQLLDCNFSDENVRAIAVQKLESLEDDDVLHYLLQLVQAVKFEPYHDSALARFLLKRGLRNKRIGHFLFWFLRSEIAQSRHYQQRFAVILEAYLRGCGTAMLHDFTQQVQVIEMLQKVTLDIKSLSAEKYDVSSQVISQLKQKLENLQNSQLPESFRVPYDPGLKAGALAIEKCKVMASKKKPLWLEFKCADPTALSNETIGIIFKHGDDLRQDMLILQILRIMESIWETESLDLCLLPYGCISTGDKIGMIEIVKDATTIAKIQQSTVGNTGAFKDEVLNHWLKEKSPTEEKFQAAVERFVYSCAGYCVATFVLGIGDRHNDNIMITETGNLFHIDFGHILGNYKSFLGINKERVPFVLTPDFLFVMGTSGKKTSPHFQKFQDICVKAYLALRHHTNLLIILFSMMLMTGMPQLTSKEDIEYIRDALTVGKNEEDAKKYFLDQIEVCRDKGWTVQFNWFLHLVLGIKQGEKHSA

Nc1ncc(C(=O)C2CC2)c(N2CC[C@H]2c2nn3ccc(Cl)c3c(=O)n2-c2ccccc2)n1 [Compound 326]
PI3Kβ IH % @ 1 uM (p110β/p85α): −23.5%
PI3Kδ IH % @ 1 uM (p110δ/p85α): 7.1%
PI3Kγ IH % @ 1 uM (p110γ): 50.7%

Nc1nc2c(c(N3CCCC3c3cn4ccc(Cl)c4c(=O)n3-c3ccccc3)n1)C(=O)CCN2 (centres unmarked) [Compound 327]
PI3Kβ IH % @ 1 uM (p110β/p85α): 73.4%
IC50 (p110β/p85α): 250 nM
PI3Kδ IH % @ 1 uM (p110δ/p85α): 99.5%
IC50 (p110δ/p85α): 2 nM
PI3Kγ IH % @ 1 uM (p110γ): 97.2%
IC50 (p110γ): 1 nM

Nc1nc(N2CCC[C@H]2c2nn3ccc(Cl)c3c(=O)n2-c2ccccc2)c2cccn2n1 [Compound 331]
PI3Kβ IH % @ 1 uM (p110β/p85α): 20.9%
PI3Kδ IH % @ 1 uM (p110δ/p85α): 71.9%
IC50 (p110δ/p85α): 121 nM
PI3Kγ IH % @ 1 uM (p110γ): >100%
IC50 (p110γ): 147 nM

Nc1nc(N2CC[C@H]2c2nn3ccc(Cl)c3c(=O)n2-c2ccccc2)c2ncccc2n1 [Compound 334]
PI3Kβ IH % @ 1 uM (p110β/p85α): 11.2%
PI3Kδ IH % @ 1 uM (p110δ/p85α): 25.7%
PI3Kγ IH % @ 1 uM (p110γ): 82.1%
IC50 (p110γ): 68 nM

Nc1nc(N2CCC[C@H]2c2nn3ccc(Cl)c3c(=O)n2-c2ccccc2)c2ncccc2n1 [Compound 335]
PI3Kβ IH % @ 1 uM (p110β/p85α): 17.0%
PI3Kδ IH % @ 1 uM (p110δ/p85α): 48.4%
PI3Kγ IH % @ 1 uM (p110γ): 69.5%

N#Cc1c[nH]c2ncnc(N3CCC[C@H]3c3nn4ccc(Cl)c4c(=O)n3-c3ccccn3)c12 [Compound 337, (S)-4-(2-(5-chloro-4-oxo-3-(pyridin-2-yl)-3,4-dihydropyrrolo[2,1-f][1,2,4]triazin-2-yl)pyrrolidin-1-yl)-7H-pyrrolo[2,3-d]pyrimidine-5-carbonitrile]
PI3Kβ IH % @ 1 uM (p110β/p85α): 93.2%
IC50 (p110β/p85α): 21 nM
PI3Kδ IH % @ 1 uM (p110δ/p85α): 99.2%
IC50 (p110δ/p85α): 1 nM
PI3Kγ IH % @ 1 uM (p110γ): >100%
IC50 (p110γ): 5 nM

CC(=O)c1c[nH]c2ncnc(N3CCC[C@H]3c3nn4ccc(Cl)c4c(=O)n3-c3ccccn3)c12 [Compound 340]
PI3Kβ IH % @ 1 uM (p110β/p85α): 76.1%
IC50 (p110β/p85α): 163 nM
PI3Kδ IH % @ 1 uM (p110δ/p85α): 100.0%
IC50 (p110δ/p85α): 1 nM
PI3Kγ IH % @ 1 uM (p110γ): 94.3%
IC50 (p110γ): 9 nM

Cc1cccc(-n2c([C@@H]3CCCN3c3ncnc4[nH]cnc34)nn3ccc(Cl)c3c2=O)n1 [Compound 342]
PI3Kβ IH % @ 1 uM (p110β/p85α): 45.2%
PI3Kδ IH % @ 1 uM (p110δ/p85α): 92.1%
IC50 (p110δ/p85α): 38 nM
PI3Kγ IH % @ 1 uM (p110γ): 77.1%
IC50 (p110γ): 272 nM

O=c1c2c(Cl)ccn2nc([C@@H]2CCCN2c2ncnc3[nH]cnc23)n1-c1ccncn1 [Compound 344]
PI3Kβ IH % @ 1 uM (p110β/p85α): 57.3%
PI3Kδ IH % @ 1 uM (p110δ/p85α): 94.8%
IC50 (p110δ/p85α): 85 nM
PI3Kγ IH % @ 1 uM (p110γ): 85.5%
IC50 (p110γ): 81 nM

N#Cc1c[nH]c2ncnc(N3C[C@@H](F)C[C@H]3c3nn4ccc(Cl)c4c(=O)n3-c3ccccn3)c12 [Compound 345]
PI3Kβ IH % @ 1 uM (p110β/p85α): 93.2%
IC50 (p110β/p85α): 28 nM
PI3Kδ IH % @ 1 uM (p110δ/p85α): >100%
IC50 (p110δ/p85α): 1 nM
PI3Kγ IH % @ 1 uM (p110γ): 97.1%
IC50 (p110γ): 4 nM

N#Cc1c[nH]c2ncnc(N3C[C@@H](F)C[C@H]3c3nn4ccc(F)c4c(=O)n3-c3ccccn3)c12 [Compound 346]
PI3Kβ IH % @ 1 uM (p110β/p85α): 86.1%
IC50 (p110β/p85α): 47 nM
PI3Kδ IH % @ 1 uM (p110δ/p85α): >100%
IC50 (p110δ/p85α): 2 nM
PI3Kγ IH % @ 1 uM (p110γ): 94.1%
IC50 (p110γ): 26 nM

N#C[C@H]1C[C@@H](c2nn3ccc(Cl)c3c(=O)n2-c2cccc(F)c2)N(c2ncnc3[nH]cnc23)C1 [Compound 347, (3S,5S)-5-(5-chloro-3-(3-fluorophenyl)-4-oxo-3,4-dihydropyrrolo[2,1-f][1,2,4]triazin-2-yl)-1-(9H-purin-6-yl)pyrrolidine-3-carbonitrile]
PI3Kβ IH % @ 1 uM (p110β/p85α): 87.8%
IC50 (p110β/p85α): 70 nM
PI3Kδ IH % @ 1 uM (p110δ/p85α): 98.3%
IC50 (p110δ/p85α): 2 nM
PI3Kγ IH % @ 1 uM (p110γ): 91.8%
IC50 (p110γ): 13 nM

C[S@+]([O-])c1c[nH]c2ncnc(N3C[C@@H](C#N)C[C@H]3c3nn4ccc(Cl)c4c(=O)n3-c3cccc(F)c3)c12 [Compound 348, (3S,5S)-5-(5-chloro-3-(3-fluorophenyl)-4-oxo-3,4-dihydropyrrolo[2,1-f][1,2,4]triazin-2-yl)-1-(5-((S)-methylsulfinyl)-7H-pyrrolo[2,3-d]pyrimidin-4-yl)pyrrolidine-3-carbonitrile]
PI3Kβ IH % @ 1 uM (p110β/p85α): 51.2%
PI3Kδ IH % @ 1 uM (p110δ/p85α): 96.9%
IC50 (p110δ/p85α): 39 nM
PI3Kγ IH % @ 1 uM (p110γ): 75.6%
IC50 (p110γ): 312 nM

C[S@@+]([O-])c1c[nH]c2ncnc(N3C[C@@H](C#N)C[C@H]3c3nn4ccc(Cl)c4c(=O)n3-c3cccc(F)c3)c12 [Compound 349, (3S,5S)-5-(5-chloro-3-(3-fluorophenyl)-4-oxo-3,4-dihydropyrrolo[2,1-f][1,2,4]triazin-2-yl)-1-(5-((R)-methylsulfinyl)-7H-pyrrolo[2,3-d]pyrimidin-4-yl)pyrrolidine-3-carbonitrile]
PI3Kβ IH % @ 1 uM (p110β/p85α): 29.5%
PI3Kδ IH % @ 1 uM (p110δ/p85α): 92.6%
IC50 (p110δ/p85α): 111 nM
PI3Kγ IH % @ 1 uM (p110γ): 76.6%
IC50 (p110γ): 268 nM

N#Cc1c[nH]c2ncnc(N3C[C@@H](C#N)C[C@H]3c3nn4ccc(Cl)c4c(=O)n3-c3cccc(F)c3)c12 [Compound 350]
PI3Kβ IH % @ 1 uM (p110β/p85α): >100%
IC50 (p110β/p85α): 35 nM
PI3Kδ IH % @ 1 uM (p110δ/p85α): >100%
IC50 (p110δ/p85α): 1 nM
PI3Kγ IH % @ 1 uM (p110γ): >100%
IC50 (p110γ): 4 nM

N#Cc1cnc(N)nc1N1C[C@@H](C#N)C[C@H]1c1nn2ccc(Cl)c2c(=O)n1-c1ccccc1 [Compound 351]
PI3Kβ IH % @ 1 uM (p110β/p85α): 89.6%
IC50 (p110β/p85α): 81 nM
PI3Kδ IH % @ 1 uM (p110δ/p85α): >100%
IC50 (p110δ/p85α): 1 nM
PI3Kγ IH % @ 1 uM (p110γ): 95.5%
IC50 (p110γ): 3 nM

C[S+]([O-])c1n[nH]c2ncnc(N3CCC[C@H]3c3nn4ccc(Cl)c4c(=O)n3-c3ccccc3)c12 (stereo partly drawn) [Compound 352, 5-chloro-2-((2S)-1-(3-(methylsulfinyl)-1H-pyrazolo[3,4-d]pyrimidin-4-yl)pyrrolidin-2-yl)-3-phenylpyrrolo[2,1-f][1,2,4]triazin-4(3H)-one]
PI3Kβ IH % @ 1 uM (p110β/p85α): 40.7%
PI3Kδ IH % @ 1 uM (p110δ/p85α): >100%
IC50 (p110δ/p85α): 34 nM
PI3Kγ IH % @ 1 uM (p110γ): 97.2%
IC50 (p110γ): 11 nM

C[S+]([O-])c1n[nH]c2ncnc(N3CC[C@H]3c3nn4ccc(Cl)c4c(=O)n3-c3ccccc3)c12 (some centres unmarked) [Compound 353]
PI3Kβ IH % @ 1 uM (p110β/p85α): 14.6%
PI3Kδ IH % @ 1 uM (p110δ/p85α): 33.8%
PI3Kγ IH % @ 1 uM (p110γ): 79.2%
IC50 (p110γ): 223 nM

CC(O)c1cnc(N)nc1N1CC[C@H]1c1nn2ccc(Cl)c2c(=O)n1-c1ccccc1 (stereo partly drawn) [Compound 357, 2-((2S)-1-(2-amino-5-(1-hydroxyethyl)pyrimidin-4-yl)azetidin-2-yl)-5-chloro-3-phenylpyrrolo[2,1-f][1,2,4]triazin-4(3H)-one]
PI3Kβ IH % @ 1 uM (p110β/p85α): 5%
PI3Kδ IH % @ 1 uM (p110δ/p85α): 37.9%
PI3Kγ IH % @ 1 uM (p110γ): 66.2%

N#C[C@@H]1C[C@@H](c2nn3ccc(Cl)c3c(=O)n2-c2ccccc2)N(c2ncnc3[nH]cnc23)C1 [Compound 358, (3R,5S)-5-(5-chloro-4-oxo-3-phenyl-3,4-dihydropyrrolo[2,1-f][1,2,4]triazin-2-yl)-1-(9H-purin-6-yl)pyrrolidine-3-carbonitrile]
PI3Kβ IH % @ 1 uM (p110β/p85α): 62.0%
IC50 (p110β/p85α): 269 nM
PI3Kδ IH % @ 1 uM (p110δ/p85α): >100%
IC50 (p110δ/p85α): 17 nM
PI3Kγ IH % @ 1 uM (p110γ): >100%
IC50 (p110γ): 66 nM

N#C[C@H]1C[C@@H](c2nn3ccc(Cl)c3c(=O)n2-c2ccccc2)N(c2ncnc3[nH]cnc23)C1 [Compound 359]
PI3Kβ IH % @ 1 uM (p110β/p85α): 94.8%
IC50 (p110β/p85α): 44 nM
PI3Kδ IH % @ 1 uM (p110δ/p85α): >100%
IC50 (p110δ/p85α): 1 nM
PI3Kγ IH % @ 1 uM (p110γ): >100%
IC50 (p110γ): 3 nM

N#Cc1c[nH]c2ncnc(N3C[C@@H](C#N)C[C@H]3c3nn4ccc(Cl)c4c(=O)n3-c3ccccc3)c12 [Compound 360]
PI3Kβ IH % @ 1 uM (p110β/p85α): 95.3%
IC50 (p110β/p85α): 12 nM
PI3Kδ IH % @ 1 uM (p110δ/p85α): 99.2%
IC50 (p110δ/p85α): 1 nM
PI3Kγ IH % @ 1 uM (p110γ): >100%
IC50 (p110γ): 5 nM

N#C[C@H]1C[C@@H](c2nn3ccc(Cl)c3c(=O)n2-c2ccc(F)cc2)N(c2ncnc3[nH]cnc23)C1 [Compound 361]
PI3Kβ IH % @ 1 uM (p110β/p85α): 79.2%
IC50 (p110β/p85α): 103 nM
PI3Kδ IH % @ 1 uM (p110δ/p85α): 97.9%
IC50 (p110δ/p85α): 25 nM
PI3Kγ IH % @ 1 uM (p110γ): >100%
IC50 (p110γ): 27 nM
